Source: ChEMBL document CHEMBL1201862, “PubChem BioAssay data set” (2004)
Calls of active or inactive are those of the source.

Key:
[1] = test system: Streptococcus sp. 'group A'; experiment: Streptococcus pyogenes SK(-)GAS viability under kanamycin – luminescence, BacTiterGlo, confirmation, counter-screen for streptokinase expression inhibitor project, dose response (AID 1900); format: functional, organism-based
Streptokinase A = target: T1, Streptokinase A (Streptococcus pyogenes serotype M1, UniProt P10520); experiment: viability-normalized secreted streptokinase activity reduction – plasminogen activation absorbance, OD405, dose response (AID 1914); format: functional, Streptococcus pyogenes M1 GAS;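 also: secreted streptokinase activity via plasminogen activation per viability signal from cell pellet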
T1 sequence (P10520 whole entry): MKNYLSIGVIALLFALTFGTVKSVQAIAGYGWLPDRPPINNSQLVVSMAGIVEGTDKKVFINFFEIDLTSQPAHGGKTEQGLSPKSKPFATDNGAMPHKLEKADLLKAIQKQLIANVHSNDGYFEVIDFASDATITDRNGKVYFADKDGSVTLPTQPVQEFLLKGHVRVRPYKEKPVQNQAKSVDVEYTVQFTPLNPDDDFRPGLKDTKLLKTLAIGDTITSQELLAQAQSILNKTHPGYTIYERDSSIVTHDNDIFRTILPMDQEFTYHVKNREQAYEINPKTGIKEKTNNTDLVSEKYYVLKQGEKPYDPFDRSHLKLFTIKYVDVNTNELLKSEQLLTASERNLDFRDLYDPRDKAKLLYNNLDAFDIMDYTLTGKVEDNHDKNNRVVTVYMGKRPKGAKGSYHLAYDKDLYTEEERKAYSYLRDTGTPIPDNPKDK

[2] = microbe, parasite or virus in culture; format: functional; conditions: Mycobacterium tuberculosis
Streptococcus = experiment: GAS UMAA2166 growth inhibition – luminescence, BacTiterGlo, counter-screen for streptokinase expression inhibitor project, dose response (AID 1915); format: functional, organism-based;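 also: potency for reduction of bacterial viability or growth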
[3] = target: Glucose-6-phosphate 1-dehydrogenase (Homo sapiens, UniProt P11413); experiment: inhibition of Homo sapiens G6PD, dose series – biochemical, fluorescence, selectivity assay for P. falciparum G6PD inhibitor project, dose response (AID 504792); format: functional
Sequence of Glucose-6-phosphate 1-dehydrogenase (P11413 whole entry): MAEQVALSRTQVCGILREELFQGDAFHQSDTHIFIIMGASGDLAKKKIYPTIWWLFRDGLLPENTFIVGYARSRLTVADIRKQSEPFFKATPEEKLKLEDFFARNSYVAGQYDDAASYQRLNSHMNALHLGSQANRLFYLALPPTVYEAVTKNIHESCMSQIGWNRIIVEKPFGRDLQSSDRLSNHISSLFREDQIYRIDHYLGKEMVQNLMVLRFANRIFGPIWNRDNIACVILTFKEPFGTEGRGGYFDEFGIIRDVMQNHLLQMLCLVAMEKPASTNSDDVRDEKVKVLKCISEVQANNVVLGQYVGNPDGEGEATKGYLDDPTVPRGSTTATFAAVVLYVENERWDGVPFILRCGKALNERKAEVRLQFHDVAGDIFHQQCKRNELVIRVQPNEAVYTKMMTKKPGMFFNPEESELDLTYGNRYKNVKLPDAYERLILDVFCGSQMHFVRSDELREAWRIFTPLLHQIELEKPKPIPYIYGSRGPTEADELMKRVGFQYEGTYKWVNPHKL

[4] = target: Neurotensin receptor type 1 (Homo sapiens, UniProt P30989); format: functional;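 also: Image-based confirmatory dose-response assay measuring agonist activity at NTR1; NTR1-expressing U2OS osteosarcoma cells imaged for beta-arrestin GFP spot formation; agonist potency where compounds increase beta-arrestin recruitment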
Sequence of Neurotensin receptor type 1 (P30989 whole entry): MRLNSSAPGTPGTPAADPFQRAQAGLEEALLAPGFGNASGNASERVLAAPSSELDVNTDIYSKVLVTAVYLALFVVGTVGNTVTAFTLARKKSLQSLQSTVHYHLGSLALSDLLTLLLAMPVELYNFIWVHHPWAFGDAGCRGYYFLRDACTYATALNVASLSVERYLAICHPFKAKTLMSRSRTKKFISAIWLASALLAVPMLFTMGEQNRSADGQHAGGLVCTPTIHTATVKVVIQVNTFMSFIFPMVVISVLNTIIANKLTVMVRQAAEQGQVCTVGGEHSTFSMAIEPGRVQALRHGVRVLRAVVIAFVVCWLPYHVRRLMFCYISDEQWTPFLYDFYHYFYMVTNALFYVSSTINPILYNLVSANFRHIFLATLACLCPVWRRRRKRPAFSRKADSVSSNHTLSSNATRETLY

HEK293 = experiment: EBV LMP1 TES2 canonical NF-kB signalling blockers – cell-based, HEK293, luciferase, cherry-pick, dose response (AID 588343); format: functional; conditions: Homo sapiens
[5] = target: Voltage-gated inwardly rectifying potassium channel KCNH2 (Homo sapiens, UniProt Q12809); conditions: Potency;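 also: confirmatory quantitative high-throughput screen measuring inhibition of hERG channel activity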
Sequence of Voltage-gated inwardly rectifying potassium channel KCNH2 (Q12809 whole entry): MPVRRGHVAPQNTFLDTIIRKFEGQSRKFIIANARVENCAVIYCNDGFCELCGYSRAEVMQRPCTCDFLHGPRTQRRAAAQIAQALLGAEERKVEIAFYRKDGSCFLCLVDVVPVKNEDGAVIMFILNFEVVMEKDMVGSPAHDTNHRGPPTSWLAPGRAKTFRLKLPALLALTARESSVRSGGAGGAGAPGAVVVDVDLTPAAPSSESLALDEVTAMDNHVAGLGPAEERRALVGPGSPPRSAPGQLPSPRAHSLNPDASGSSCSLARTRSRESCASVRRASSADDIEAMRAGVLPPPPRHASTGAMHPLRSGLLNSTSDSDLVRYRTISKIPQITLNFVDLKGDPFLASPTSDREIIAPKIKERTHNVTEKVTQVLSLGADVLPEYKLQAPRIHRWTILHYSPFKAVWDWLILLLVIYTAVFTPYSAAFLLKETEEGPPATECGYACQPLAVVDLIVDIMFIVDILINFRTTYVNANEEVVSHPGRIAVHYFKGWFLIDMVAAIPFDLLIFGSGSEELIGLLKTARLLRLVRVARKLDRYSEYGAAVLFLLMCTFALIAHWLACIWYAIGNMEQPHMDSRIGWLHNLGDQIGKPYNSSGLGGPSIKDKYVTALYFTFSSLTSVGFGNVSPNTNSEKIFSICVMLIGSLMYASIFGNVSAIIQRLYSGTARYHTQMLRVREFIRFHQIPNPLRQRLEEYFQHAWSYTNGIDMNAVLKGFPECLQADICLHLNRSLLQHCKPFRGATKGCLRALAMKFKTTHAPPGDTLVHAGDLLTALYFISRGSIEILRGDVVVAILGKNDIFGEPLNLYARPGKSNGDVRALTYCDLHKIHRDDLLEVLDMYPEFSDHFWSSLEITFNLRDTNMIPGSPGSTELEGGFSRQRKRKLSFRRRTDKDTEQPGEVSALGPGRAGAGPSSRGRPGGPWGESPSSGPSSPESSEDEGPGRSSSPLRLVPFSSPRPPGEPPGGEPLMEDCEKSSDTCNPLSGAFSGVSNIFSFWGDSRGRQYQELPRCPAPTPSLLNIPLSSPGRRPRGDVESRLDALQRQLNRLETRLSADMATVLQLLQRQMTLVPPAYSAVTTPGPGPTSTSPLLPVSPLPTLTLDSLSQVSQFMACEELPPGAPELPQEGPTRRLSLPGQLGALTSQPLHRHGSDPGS

Vero [6] = experiment: viability of Vero cells under compound – cytotoxicity control for flavivirus capping enzyme inhibitors (AID 588742); format: functional; conditions: Chlorocebus sabaeus
[7] = viability of PTEN-deleted HCT116 cells – cell-based, HCT116 PTEN knockout, dose response (AID 1047); format: functional;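 also: HCT116 colon tumor cells with PTEN knocked out; cells exposed to compound for 60 hours before readout; potency for loss of cell viability measured by luminescence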
[8] = viability of HCT116 lacking mutant beta-catenin – cell-based, human colon tumor, dose response (AID 1045); format: functional;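 also: HCT116 colon tumor cells with beta catenin knocked out; cells exposed to compound for 60 hours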
[9] = target: T2, Ubiquitin-conjugating enzyme E2 N (Homo sapiens, UniProt P61088); format: functional;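 also: Dose-response confirmation in a TR-FRET assay detecting UBC13-driven polyubiquitin chain formation, inhibition measured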
T2 sequence (P61088 whole entry): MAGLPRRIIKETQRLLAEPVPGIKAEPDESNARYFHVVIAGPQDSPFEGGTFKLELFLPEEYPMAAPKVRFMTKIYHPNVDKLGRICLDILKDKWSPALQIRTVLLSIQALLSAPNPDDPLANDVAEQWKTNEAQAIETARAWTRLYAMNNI

[10] = target: Eukaryotic translation initiation factor 4E (Mus musculus, UniProt P63073); experiment: blockers of eIF4G binding by eIF4E – biochemical, TR-FRET, dose response (AID 855); format: functional;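 also: potency for disrupting eIF4E binding to eIF4GI seen as loss of FRET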
Sequence of Eukaryotic translation initiation factor 4E (P63073 whole entry): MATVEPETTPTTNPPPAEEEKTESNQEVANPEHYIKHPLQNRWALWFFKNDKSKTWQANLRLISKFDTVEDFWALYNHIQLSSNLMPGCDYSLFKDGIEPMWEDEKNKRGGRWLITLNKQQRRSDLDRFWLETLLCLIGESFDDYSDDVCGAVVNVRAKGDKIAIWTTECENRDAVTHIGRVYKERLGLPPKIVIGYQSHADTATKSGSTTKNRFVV

[11] = HEK-293T viability loss after treatment – luminescence, T-cell screen hits, cytotoxicity control for TCR NF-kB inhibitor project, dose response (AID 489026); format: functional, cell-based;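 also: cells exposed to compound about 14 hours before the viability readout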
[12] = target: Heat shock protein HSP 90-alpha (Homo sapiens, UniProt P07900); format: functional, organism-based
[13] = target: T3, Apoptotic protease-activating factor 1 (Homo sapiens, UniProt O14727); format: functional
T3 sequence (O14727 whole entry): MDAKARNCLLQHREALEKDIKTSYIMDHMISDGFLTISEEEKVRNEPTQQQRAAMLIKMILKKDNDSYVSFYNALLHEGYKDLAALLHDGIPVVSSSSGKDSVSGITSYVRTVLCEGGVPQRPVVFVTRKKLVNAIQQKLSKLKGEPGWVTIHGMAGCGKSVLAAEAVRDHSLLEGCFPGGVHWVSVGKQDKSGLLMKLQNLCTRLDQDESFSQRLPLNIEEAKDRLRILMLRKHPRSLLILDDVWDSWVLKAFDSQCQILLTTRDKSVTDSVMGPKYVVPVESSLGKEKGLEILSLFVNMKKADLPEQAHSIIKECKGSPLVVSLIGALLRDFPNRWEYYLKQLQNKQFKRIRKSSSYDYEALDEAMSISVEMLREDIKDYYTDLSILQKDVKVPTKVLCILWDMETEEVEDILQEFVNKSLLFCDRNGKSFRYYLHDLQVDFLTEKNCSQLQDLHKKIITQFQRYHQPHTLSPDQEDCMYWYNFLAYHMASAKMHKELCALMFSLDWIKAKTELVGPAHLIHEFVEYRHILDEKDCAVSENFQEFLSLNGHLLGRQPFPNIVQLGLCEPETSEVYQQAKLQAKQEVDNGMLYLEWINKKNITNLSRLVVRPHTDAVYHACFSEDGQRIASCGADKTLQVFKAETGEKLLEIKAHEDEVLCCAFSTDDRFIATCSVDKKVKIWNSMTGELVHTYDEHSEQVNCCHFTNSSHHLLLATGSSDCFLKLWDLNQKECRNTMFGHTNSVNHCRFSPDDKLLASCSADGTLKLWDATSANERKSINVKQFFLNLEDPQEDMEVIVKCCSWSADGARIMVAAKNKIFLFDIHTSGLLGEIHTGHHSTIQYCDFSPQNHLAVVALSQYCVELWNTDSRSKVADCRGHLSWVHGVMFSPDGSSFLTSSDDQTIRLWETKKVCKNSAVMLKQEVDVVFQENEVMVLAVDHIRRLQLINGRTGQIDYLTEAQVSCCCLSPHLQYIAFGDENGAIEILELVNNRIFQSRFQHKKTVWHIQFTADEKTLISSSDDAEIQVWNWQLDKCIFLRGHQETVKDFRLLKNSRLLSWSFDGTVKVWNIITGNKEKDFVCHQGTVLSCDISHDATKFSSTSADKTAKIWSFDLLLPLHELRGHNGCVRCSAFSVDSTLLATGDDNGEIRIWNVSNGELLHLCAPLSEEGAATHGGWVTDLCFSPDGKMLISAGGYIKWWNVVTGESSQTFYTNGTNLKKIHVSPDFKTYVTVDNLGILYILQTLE

[14] = target: T4, Small ubiquitin-related modifier 1 (Homo sapiens, UniProt P63165); experiment: SUMO1 protein interaction blockers, potency – biochemical, fluorescence polarization, uHTS hits, dose response (AID 624382); format: functional; conditions: read-out: IC50_Mean
T4 sequence (P63165 whole entry): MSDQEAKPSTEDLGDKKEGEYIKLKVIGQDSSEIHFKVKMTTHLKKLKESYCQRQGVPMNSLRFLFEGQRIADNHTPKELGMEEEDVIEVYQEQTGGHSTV

[15] = target: T4, Small ubiquitin-related modifier 1; experiment: SUMO1 protein-protein binding blockers, potency – biochemical, FRET, dose response (AID 624383); format: functional; conditions: read-out: IC50_Mean
HeLa = experiment: ATP-based viability loss in HeLa cells – cell-based, CellTiter-Glo luminescence, cherry-pick samples, cytotoxicity control for MITF activator project, dose response (AID 540259); format: functional; conditions: Homo sapiens
A-375 = experiment: MITF: Counter assay: A375 proliferation Measured in Cell-Based System Using Plate Reader - 2084-03_Inhibitor_Dose_DryPowder_Activity. [Related pubchem assays (depositor defined):AID488944]; format: functional; conditions: Homo sapiens
Melanocortin receptor 4 = Melanocortin receptor 4 (Homo sapiens, UniProt P32245); experiment: inhibitors of MC4R cAMP signaling – cell-based, TR-FRET, biased antagonists, dose response (AID 602298); format: functional;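 also: antagonist potency against agonist-stimulated cAMP production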
Sequence of Melanocortin receptor 4 (P32245 whole entry): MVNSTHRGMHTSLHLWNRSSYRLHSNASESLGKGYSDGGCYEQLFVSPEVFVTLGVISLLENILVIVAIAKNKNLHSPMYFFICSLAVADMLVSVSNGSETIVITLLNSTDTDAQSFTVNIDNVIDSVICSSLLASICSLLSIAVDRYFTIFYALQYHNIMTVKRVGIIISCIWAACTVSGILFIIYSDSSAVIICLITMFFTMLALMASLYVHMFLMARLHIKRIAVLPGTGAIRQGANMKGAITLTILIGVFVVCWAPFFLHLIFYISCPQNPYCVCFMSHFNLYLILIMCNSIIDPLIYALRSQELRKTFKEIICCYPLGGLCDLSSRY

[16] = cAMP pathway inhibition in counterscreen cell line – TR-FRET cAMP detection, counter-screen for MC4R biased antagonist project, dose response (AID 602305); format: functional, cell-based;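 also: U2OS cells stimulated with forskolin near its EC80 as the cAMP inducer; potency is for inhibition of forskolin-stimulated cAMP signaling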
[17] = target: T5, RNA-binding protein pos-1 (Caenorhabditis elegans, UniProt G5EF15); experiment: disruptors of C. elegans POS-1 RNA interaction – biochemical, fluorescence polarization, dose response (AID 1964);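 also: purified POS-1 fused to maltose binding protein made in E. coli; potency of compounds blocking POS-1 binding to fluorescent RNA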
T5 sequence (G5EF15 whole entry): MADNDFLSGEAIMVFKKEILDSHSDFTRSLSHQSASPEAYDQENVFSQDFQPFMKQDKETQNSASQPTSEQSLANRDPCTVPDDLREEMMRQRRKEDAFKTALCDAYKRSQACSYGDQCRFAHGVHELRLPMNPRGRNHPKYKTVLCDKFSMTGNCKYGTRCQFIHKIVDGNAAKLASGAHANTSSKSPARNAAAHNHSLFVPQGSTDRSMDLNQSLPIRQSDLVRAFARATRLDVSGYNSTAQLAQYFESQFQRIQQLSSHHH

[18] = target: T6, Zinc finger protein mex-5 (Caenorhabditis elegans, UniProt Q9XUB2); experiment: potency of MEX-5 RNA-binding blockers – biochemical, C. elegans, fluorescence polarization, dose response (AID 1960)
T6 sequence (Q9XUB2 whole entry): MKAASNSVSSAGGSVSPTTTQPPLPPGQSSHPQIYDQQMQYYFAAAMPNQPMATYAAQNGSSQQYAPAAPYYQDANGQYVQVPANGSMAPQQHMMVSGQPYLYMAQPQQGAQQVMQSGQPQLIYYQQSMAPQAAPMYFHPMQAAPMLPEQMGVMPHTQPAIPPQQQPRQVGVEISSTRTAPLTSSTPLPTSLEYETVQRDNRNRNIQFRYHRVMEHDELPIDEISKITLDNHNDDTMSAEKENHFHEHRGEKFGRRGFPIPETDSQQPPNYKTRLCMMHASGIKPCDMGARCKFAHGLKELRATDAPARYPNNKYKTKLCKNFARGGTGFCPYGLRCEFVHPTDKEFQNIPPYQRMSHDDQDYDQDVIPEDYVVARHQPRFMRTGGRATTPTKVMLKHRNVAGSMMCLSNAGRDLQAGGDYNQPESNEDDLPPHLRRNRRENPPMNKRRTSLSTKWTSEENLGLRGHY

Vero [19] = experiment: cells; format: functional; conditions: Chlorocebus sabaeus
Genome polyprotein = Genome polyprotein (dengue virus type 2, UniProt P29990); experiment: flavivirus cap methylation enzyme inhibition – biochemical, confirmation dose response, primary screen (AID 588689); format: functional
Sequence of Genome polyprotein (P29990 2492-3391 limits assumed): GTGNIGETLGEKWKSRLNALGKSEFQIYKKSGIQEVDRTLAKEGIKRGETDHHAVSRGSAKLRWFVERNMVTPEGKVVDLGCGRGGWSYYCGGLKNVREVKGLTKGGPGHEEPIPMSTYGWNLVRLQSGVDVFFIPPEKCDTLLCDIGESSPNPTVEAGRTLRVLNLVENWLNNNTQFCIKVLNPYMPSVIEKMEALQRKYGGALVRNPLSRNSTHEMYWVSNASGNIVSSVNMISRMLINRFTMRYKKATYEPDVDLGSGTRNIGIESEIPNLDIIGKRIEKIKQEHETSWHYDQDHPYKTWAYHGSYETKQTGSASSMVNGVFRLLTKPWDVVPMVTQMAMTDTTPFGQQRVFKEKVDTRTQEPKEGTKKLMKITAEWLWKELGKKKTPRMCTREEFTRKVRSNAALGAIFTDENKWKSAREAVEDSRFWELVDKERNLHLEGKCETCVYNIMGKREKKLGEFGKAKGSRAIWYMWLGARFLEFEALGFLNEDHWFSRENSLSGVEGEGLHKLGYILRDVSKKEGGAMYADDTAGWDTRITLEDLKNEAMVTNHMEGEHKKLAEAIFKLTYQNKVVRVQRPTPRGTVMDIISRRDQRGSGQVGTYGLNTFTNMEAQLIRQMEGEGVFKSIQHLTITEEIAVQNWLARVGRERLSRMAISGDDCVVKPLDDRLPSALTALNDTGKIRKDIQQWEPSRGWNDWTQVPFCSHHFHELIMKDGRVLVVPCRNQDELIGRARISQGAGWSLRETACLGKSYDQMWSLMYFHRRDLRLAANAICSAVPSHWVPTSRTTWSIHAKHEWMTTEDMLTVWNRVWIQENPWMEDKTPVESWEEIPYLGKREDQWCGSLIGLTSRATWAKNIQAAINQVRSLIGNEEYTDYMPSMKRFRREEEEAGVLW

[20] = reduction of Shn3 3'UTR-driven luciferase in osteoblasts – cell-based, Clone20 osteoblasts, firefly luciferase, cherry-picked, dose response (AID 624132); format: functional;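 also: firefly luciferase luminescence from reporter carrying the Shn3 3'UTR in osteoblasts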
[21] = loss of viability in HepG2 cells – cell-based, CellTiter-Glo, cherry-picked, cytotoxicity control for Shn3 inhibitor project, dose response (AID 624134); format: functional
[22] = non-specific 3'UTR reporter inhibition in Clone20-Shn3RL – cell-based, Renilla luciferase, cherry-picked, counter-screen for Shn3 inhibitor project, dose response (AID 624133); format: functional
[23] = target: Mitogen-activated protein kinase 13 (Homo sapiens, UniProt O15264); format: functional
Sequence of Mitogen-activated protein kinase 13 (O15264 whole entry): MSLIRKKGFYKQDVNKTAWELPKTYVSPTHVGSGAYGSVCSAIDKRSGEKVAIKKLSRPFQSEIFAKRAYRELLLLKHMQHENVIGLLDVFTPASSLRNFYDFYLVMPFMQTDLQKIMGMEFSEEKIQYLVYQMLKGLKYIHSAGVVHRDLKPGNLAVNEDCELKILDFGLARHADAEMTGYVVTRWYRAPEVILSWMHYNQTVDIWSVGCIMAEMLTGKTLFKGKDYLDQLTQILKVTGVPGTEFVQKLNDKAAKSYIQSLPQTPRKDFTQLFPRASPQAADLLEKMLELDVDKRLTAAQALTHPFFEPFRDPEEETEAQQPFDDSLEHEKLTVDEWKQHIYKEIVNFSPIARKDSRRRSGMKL

[24] = target: T7, Endoribonuclease toxin MazF (Escherichia coli K-12, UniProt P0AE70); experiment: activation of MazEF endoribonuclease cleavage – biochemical, fluorescence, single-stranded RNA substrate, uHTS hits, dose response (AID 588481); format: functional
T7 sequence (P0AE70 whole entry): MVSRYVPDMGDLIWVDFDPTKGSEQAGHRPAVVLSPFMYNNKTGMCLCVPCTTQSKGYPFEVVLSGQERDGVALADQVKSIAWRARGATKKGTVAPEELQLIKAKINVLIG

[25] = target: T7, Endoribonuclease toxin MazF; experiment: substrate-only fluorescence increase artefacts – biochemical, single-stranded RNase substrate, counter-screen for MazEF activator project, dose response (AID 588502); format: functional
[26] = mammalian cell viability loss – Alamar Blue, dry powder, cytotoxicity control for antifungal single agent project, dose response (AID 602188); format: functional, cell-based

Cc1ccc(C(=O)/C=C/C(=O)c2ccc(C)cc2)cc1
EC50 [1]: 3.45 µM (active)
EC50 (Streptokinase A): 0.653 µM (active)
CC50 [2]: 31.4 µM (active)
EC50 (Streptococcus): 9.38 µM (active)
IC50 [3]: > 80 µM (inactive)
EC50 [4]: 14.9 µM (active)
AC50 (HEK293): 8.72 µM (active)

CCC(Cl)CC(Cl)C(Cl)C(Cl)C(Cl)C(C)Cl (configuration not stated)
AC50 [5]: 11.2 µM (inconclusive)

Cc1nc2cc(NCc3nc4ccccc4n3Cc3ccccc3)ccc2n1C
CC50 (Vero [6]): > 40 µM (active)

CCCCCCCCCCCCCCCC[n+]1ccc(C(N)=O)cc1
EC50 [7]: 6.2 µM (active)
EC50 [8]: 6.46 µM (active)
IC50 [9]: > 20 µM (inactive)
IC50 [10]: 25.1 µM (active)
IC50 [11]: 74.4 µM (inactive)
AC50 [12]: 8.77 µM (active)
IC50 [13]: 25.7 µM (active)
IC50 [14]: > 66.6 µM (inactive)
IC50 [15]: 13.8 µM (active)

COc1ccc(-c2cc(=O)c3cc(C)ccc3[nH]2)cc1
AC50 (HeLa): 79.9 µM (active)

COc1cc(NCc2ccccc2O)c2ncccc2c1
IC50 [3]: > 80 µM (inactive)

CCN(Cc1ccccc1)c1ccccc1
AC50 [5]: 35.5 µM (inconclusive)

CC(C)=NOc1cc(NC(=O)CCl)cc([N+](=O)[O-])c1
AC50 (A-375): 15.3 µM (active)

CCN(C(=O)COC(=O)CSc1ccc(C(N)=O)cc1[N+](=O)[O-])C1CCCCC1
IC50 (Melanocortin receptor 4): > 64.6 µM (inactive)
IC50 [16]: > 64.6 µM (inactive)

CCOc1cc(/C=C2/C(=O)ON=C2C)ccc1OCc1ccccc1F
EC50 [17]: 53.5 µM (active)
EC50 [18]: 37.3 µM (inconclusive)
CC50 (Vero [6]): > 40 µM (active)
CC50 (Vero [19]): > 25 µM (active)
IC50 (Genome polyprotein): 41.5 µM (active)
AC50 [20]: 6.95 µM (active)
AC50 [21]: 69.3 µM (active)
AC50 [22]: 28.2 µM (active)

CCN(CC)C(=O)Oc1ccc2c(=O)c(-c3ccc(OC)cc3)coc2c1
AC50 (HeLa): 287 µM (active)

NC1C2CN(c3nc4c(cc3F)c(=O)c(C(=O)O)cn4-c3ccc(F)cc3F)CC12 (configuration not stated)
Ki [23]: > 7.94 µM (inactive)

CN(CC(=O)Nc1ccccc1Cl)CC(=O)c1c(N)n(Cc2ccccc2)c(=O)n(C)c1=O
EC50 [24]: > 99 µM (inactive)
EC50 [25]: > 99 µM (inactive)

Oc1c(C(c2ccccc2Cl)N2CCCCC2)ccc2cccnc12 (configuration not stated)
AC50 [26]: 5.69 µM (active)
